From ChEMBL document CHEMBL1201862, “PubChem BioAssay data set” (2004)
Active and inactive are the calls of the source.

Tests used:
[1] = inhibitors of firefly luciferase expression or activity, dose response, H4 neuroglioma cells, luminescence (AID 1990); assay type: functional, cell-based
[2] = Luminescence Cell-Based Dose Response HTS to Identify Inhibitors of 5'UTR Stem-Loop Driven Prion Protein mRNA Translation in H4 Neuroglioblastoma Cells. [Related pubchem assays: 1827 (Project Summary), 1813 (Primary HTS)]; assay type: functional
[3] = inhibitors of SNCA 5'UTR-driven reporter translation, confirmation, H4 neuroglioma cells, luminescence (AID 1988); assay type: functional, cell-based
[4] = Intein inhibitors as potential Tuberculosis drugs, a cytotoxicity screen. [Related pubchem assays (depositor defined):AID2221, AID2223, AID434968, AID435010, AID449749, AID449750, AID489010]; assay type: functional
[5] = target: Heat shock protein HSP 90-alpha (Homo sapiens, UniProt P07900); assay: Luminescence-based dose response biochemical high throughput screening assay for inhibitors of the Heat Shock Protein 90 (HSP90). [Related pubchem assays: 1831 (Summary AID.), 1846 (Confirmation screen.), 1789 (Primary screen.)]
[6] = target: T1, Histone-lysine N-methyltransferase NSD2 (Homo sapiens, UniProt O96028); assay type: biochemical
T1 sequence (O96028 whole entry): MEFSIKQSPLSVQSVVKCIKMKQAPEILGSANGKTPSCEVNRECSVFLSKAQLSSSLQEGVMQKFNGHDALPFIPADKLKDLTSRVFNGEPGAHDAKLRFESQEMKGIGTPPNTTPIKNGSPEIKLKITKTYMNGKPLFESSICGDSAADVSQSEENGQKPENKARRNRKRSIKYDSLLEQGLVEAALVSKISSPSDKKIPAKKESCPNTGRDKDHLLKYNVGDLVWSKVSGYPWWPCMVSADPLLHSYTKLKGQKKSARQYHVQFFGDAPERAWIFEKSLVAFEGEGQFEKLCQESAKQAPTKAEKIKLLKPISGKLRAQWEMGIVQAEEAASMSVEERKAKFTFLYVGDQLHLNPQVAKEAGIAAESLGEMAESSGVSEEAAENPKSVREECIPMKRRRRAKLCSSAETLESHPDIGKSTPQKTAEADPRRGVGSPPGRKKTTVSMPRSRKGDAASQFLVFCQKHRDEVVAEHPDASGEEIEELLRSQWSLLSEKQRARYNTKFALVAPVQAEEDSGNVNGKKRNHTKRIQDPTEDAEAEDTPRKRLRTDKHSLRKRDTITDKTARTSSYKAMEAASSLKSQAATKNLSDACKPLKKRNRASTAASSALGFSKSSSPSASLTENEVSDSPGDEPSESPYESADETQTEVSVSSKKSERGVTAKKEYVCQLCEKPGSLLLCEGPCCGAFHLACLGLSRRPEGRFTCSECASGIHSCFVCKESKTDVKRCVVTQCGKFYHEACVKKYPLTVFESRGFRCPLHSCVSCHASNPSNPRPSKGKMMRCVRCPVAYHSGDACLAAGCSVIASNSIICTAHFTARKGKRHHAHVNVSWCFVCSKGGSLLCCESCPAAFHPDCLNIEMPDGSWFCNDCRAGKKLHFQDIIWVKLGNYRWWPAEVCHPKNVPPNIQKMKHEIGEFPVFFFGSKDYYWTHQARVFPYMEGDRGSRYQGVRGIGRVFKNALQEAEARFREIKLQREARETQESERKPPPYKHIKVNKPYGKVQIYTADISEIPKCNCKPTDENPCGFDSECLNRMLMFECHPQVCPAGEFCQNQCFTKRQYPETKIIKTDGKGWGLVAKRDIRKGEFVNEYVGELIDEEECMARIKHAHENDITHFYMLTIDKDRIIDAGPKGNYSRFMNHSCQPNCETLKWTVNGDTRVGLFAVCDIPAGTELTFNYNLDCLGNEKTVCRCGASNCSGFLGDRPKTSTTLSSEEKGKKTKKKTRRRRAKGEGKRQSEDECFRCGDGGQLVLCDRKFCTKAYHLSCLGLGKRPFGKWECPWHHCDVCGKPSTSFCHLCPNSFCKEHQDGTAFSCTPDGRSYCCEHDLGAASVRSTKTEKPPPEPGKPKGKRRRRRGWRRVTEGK

[7] = inhibitors of intracellular T. cruzi replication, confirmation, NIH3T3 host cells, beta-gal luminescence (AID 2044); assay type: functional, cell-based;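 further: intracellular parasites grown in NIH/3T3 mouse fibroblasts as host cells; luminescent beta-galactosidase reporter signal from transgenic T. cruzi replicating inside host cells; inhibitors lower the luminescence signal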
[8] = target: T2, Ubiquitin-conjugating enzyme E2 N (Homo sapiens, UniProt P61088); assay type: functional;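 further: Dose-response confirmation in a TR-FRET assay detecting UBC13-driven polyubiquitin chain formation, inhibition measured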
T2 sequence (P61088 whole entry): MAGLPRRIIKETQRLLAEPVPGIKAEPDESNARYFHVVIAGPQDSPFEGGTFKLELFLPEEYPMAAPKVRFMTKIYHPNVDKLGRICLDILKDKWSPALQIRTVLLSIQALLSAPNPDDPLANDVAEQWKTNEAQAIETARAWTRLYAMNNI

CAAX prenyl protease 2 = target: T3, CAAX prenyl protease 2 (Saccharomyces cerevisiae S288c, UniProt Q03530); assay type: biochemical
T3 sequence (Q03530 whole entry): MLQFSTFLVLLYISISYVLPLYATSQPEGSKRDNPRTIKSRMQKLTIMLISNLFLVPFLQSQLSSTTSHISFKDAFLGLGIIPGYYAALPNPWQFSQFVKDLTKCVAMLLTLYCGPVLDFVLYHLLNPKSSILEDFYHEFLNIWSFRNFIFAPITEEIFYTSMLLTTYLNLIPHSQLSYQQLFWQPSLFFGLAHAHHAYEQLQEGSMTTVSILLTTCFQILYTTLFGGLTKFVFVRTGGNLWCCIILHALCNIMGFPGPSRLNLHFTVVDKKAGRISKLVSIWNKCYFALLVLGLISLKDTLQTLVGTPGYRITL
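Wherever CC50 is given: cells exposed to compound for 72 hours before luminescence readout.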

COc1cc(OC)c(NC2=CC(=O)C(=O)c3ccccc32)cc1Cl
EC50 [1]: 412 nM (active)
EC50 [2]: 3700 nM (active)
EC50 [3]: 197 nM (active)

COc1cc2c(cc1OC)-c1c(OC)c(OC)cc3c1C(C2)N(C)CC3 (centres undefined)
CC50 [4]: > 40000 nM (active)

CCc1ccc(S(=O)(=O)/N=C2\C=C(Nc3cccc(C(=O)O)c3)C(=O)c3ccccc32)cc1
IC50 [5]: 926 nM (active)
AC50 [6]: 263 nM (active)

CCCCCCCCCCOC(=O)Cn1c(COc2cccc(OC)c2)[n+](C)c2ccccc21
EC50 [7]: 765 nM (active)
IC50 [8]: > 20000 nM (inactive)
AC50 (CAAX prenyl protease 2): 65200 nM (active)
